{"source": "patent US20060148707A1", "about": "“Use of ligands to GABA beta receptors” (priority 1999, published 2006)", "type_in_all_cases": "in vivo, Wistar rats", "key": {"[1]": {"system": "NGF mRNA", "assay": "NGF mRNA in rat cortex, hippocampus and spinal cord after i.p. treatment (RT-PCR, ratio to S12)", "settings": "3 and 10 mg/kg i.p., 6 and 24 hours after treatment", "procedure": "(§1) Male adult Wistar rats (10-12 weeks) are killed by decapitation. The brains are removed, rapidly dissected with nuclease-free instruments on an ice-cold metal-plate, transferred to sterile cryotubes, and immediately shock-frozen by immersions in liquid nitrogen. Tissues are stored at −80° C. until further processing. Samples for the measurement of neurotrophin protein levels are prepared according to Lüesse et al., Exp. Brain Res. 1998: 119, 1-8. The homogenates are centrifuged at 12,500 g for 60 min, and the supernatants are used for NGF, BDNF and neurotrophin-3 (NT-3) quantification using specific ELISA assays.\n(§2) Total cellular RNA is isolated according to the TRIZOL®-protocol (Gibco BRL, Eggenstein) as described by Lüesse et al. (see above).\n(§3) Before being subjected to RT-PCR, the RNA extracts are supplemented with internal control RNA and optimized as described in detail by Heese K. et al., 1998, Neural Notes III, 21-23. Total RNA of each sample is first reverse-transcribed into cDNA which in turn is subjected to PCR amplification using primers specific for NGF and BDNF as described by Heese K et al., (see above).\n(§4) For the quantification of neurotrophin transcripts, the ratios of densitometric scores for NGF or BDNF and S12 PCR products are calculated. Data are means±SEM of three independent experiments, each done in duplicate. N=4 to 6 for each group."}, "[2]": {"system": "BDNF mRNA", "assay": "BDNF mRNA in rat cortex, hippocampus and spinal cord after i.p. treatment (RT-PCR, ratio to S12)", "settings": "3 and 10 mg/kg i.p., 6 and 24 hours after treatment", "procedure": "as §1, §2, §3, §4"}, "[3]": {"system": "NT-3-protein", "assay": "NT-3 protein in rat cortex, hippocampus and spinal cord after i.p. treatment (immunoassay)", "settings": "4 mg/kg i.p.", "procedure": "as §1\nTo measure the immunoreactive NGF into the cortex, hippocampus and spinal cord of rats, a two-site ELISA is used (Weskamnp, G. and Otten, U. 1987, J. Neurochem. 48, 1779-1786). Anti-β (2.5S, 7S) NGF and anti-β (2.5S, 7S) NGF-β-gal (clone 27/21) (Boehringer Mannheim) are applied, and the NGF content in the samples is determined by comparison with an NGF standard curve (absorbance measurement at 595 nm using an ELISA reader, Dynatech MR 700). For quantification of BDNF and NT-3 levels, specific immunoassay systems are used according to the manufacturer's (Promega) protocols but modified by Heese, K. and Otten, U., 1998, J. Neurochem. 70, 699-707. Statistical evaluation of results is performed by applying analysis of variance, and the statistical error is the SEM. […]"}}, "data": [{"smiles": "C[C@H](NC[C@H](O)CP(=O)(O)CC1CCCCC1)c1cccc(C(=O)O)c1", "note": "[compound A]", "values": [{"measurement": "increase of NGF mRNA", "setting": "[1]", "value": "2.0 to 2.5", "unit": "fold"}, {"measurement": "increase of BDNF mRNA", "setting": "[2]", "value": "2 to 3", "unit": "fold"}]}, {"smiles": "NCC(CC(=O)O)c1ccc(Cl)cc1", "note": "(stereo not drawn) [compound C, β-(aminomethyl)-4-chlorobenze propanoic acid]", "values": [{"measurement": "increase of NT-3-protein levels", "setting": "[3]", "value": 3, "unit": "fold"}]}]}
